Measurements published in patent US20240148745A1, “COMPOUNDS FOR USE IN PROGRESSIVE MULTIPLE SCLEROSIS” (FONDAZIONE CENTRO SAN RAFFAELE, priority 2021, published 2024).
Structures can show the parent of a compound that is named as a salt.

Each compound was assayed on rat oligodendrocyte progenitor CG4 line (assay: Differentiation assay on rat oligodendrocyte progenitor CG4 line (HCS, mCherry+)). Settings: secondary screen of 49 selected compounds, 1 μM, 5 days.
Type: cell-based
Excerpt: Primary validation on CG4 line toxicity and differentiation. An innovative OPC line was developed for fast and reliable high content screening (HCS) of small compounds inducing oligodendrocyte differentiation. The line was genetically engineered by lentiviral transduction of rat CG4 cells (PubMed=1613821; DOI=10.1002/jnr.490310125; Louis J. C., Magal E., Muir D., Manthorpe M., Varon S.; CG-4, a new bipotential glial cell line from rat brain, is capable of differentiating in vitro into either mature oligodendrocytes or type-2 astrocytes. J. Neurosci. Res. 31:193-204(1992) to express mCherry fluorescent reporter (Evercooren, Anne & Avellana-Adalid, V. & Vitry, Sandrine & Nait-Oumesmar, Brahim & Lachapelle, Francois. (1997). Expansion of Oligodendrocyte Progenitors for Myelin Repair. 10.1007/978-1-4615-5949-8_21) in mature oligodendrocytes only, and EGFP at all stage of the oligodendroglial lineage: both the generation of mature oligodendrocytes (wmNl-mCherry) and the morphological changes associated with differentiation (CMV-EGFP) can be therefore monitored in a single assay. mCherry expression occurred only in O4+/GalC+ differentiated oligodendrocytes and GFP was ubiquitously expressed at all developmental stages. The line so obtained was validated using compounds with well-established effects on oligodendrocyte differentiation (cAMP and T3). Cell-based assay was standardized on the HCS platform (ArrayScanXTI, Brain and Spine Institute (Paris), validating the pro-differentiation effects of clemastine^27 and 9cis-retinoic acid.^28 For HCS validation of 274 compounds identified through in silico screen, double-fluo CG4 line cells were plated in 96 well-plates, 6500 cells/cm^2 and left for 24 h in proliferation. The other day, compounds were added (1 μM) for next 5 days of differentiation, with ⅔ medium changed after 3 days. 9-cis Retinoic Acid (9cis-RA; […]) served as a positive control, negative controls were basal (N1) medium and vehicle (basal+0.1% DMSO). Each compound was tested in triplicate and were imaged with ArrayScanXTI system (35 fields/well) after 5 days of differentiation.
FIG. 4 provides a schematic representation of High Content Screening (HCS) validation of the 274 compounds identified through in silico screening using CG4 line. […] In addition, the whole short list of 160 non-toxic compounds were screened using the CG4 high content phenotypic assay to further confirm the data from primary screening and to potentially select additional compounds with pro-myelinating activities. From this screening of the short list, 49 hit compounds were identified that increase differentiation either of CG4 cells or primary OPCs (FIG. 6).

Row | Compound | CG4 differentiation compared with 9cis-RA positive control
1 | COCCOc1cnc2ccn([C@H](C)c3nnc4c(F)cc(-c5cnn(C)c5)cn34)c(=O)c2c1 [AMG-337] | promoting differentiation significantly higher than 9cis-RA positive control
2 | CN(C(=O)C(c1ccccc1)c1ccccc1)[C@H](CN1CC[C@H](O)C1)c1ccccc1 [ASIMADOLINE] | promoting differentiation significantly higher than 9cis-RA positive control
3 | Cc1ccc(C(=O)NC2CC2)cc1-n1ncc(C(=O)c2cccc(C#N)c2)c1N [Acumapimod] | promoting differentiation significantly higher than 9cis-RA positive control
4 | C[N+](C)(C)CCOP(=O)([O-])OC[C@H](O)CO [CHOLINE ALFOSCERATE] | promoting differentiation significantly higher than 9cis-RA positive control
5 | Cc1cc(Oc2ccc3nc(COc4ccc(CC5SC(=O)NC5=O)cc4)n(C)c3c2)cc(C)c1N (centres unmarked) [Efatutazone hydrochloride, Efatutazone Hydrochloride] | promoting differentiation significantly higher than 9cis-RA positive control
6 | O=c1oc2c(O)c(O)cc3c(=O)oc4c(O)c(O)cc1c4c23 [Ellagic Acid] | promoting differentiation significantly higher than 9cis-RA positive control
7 | Cc1cc(Nc2cc(CN3CCOCC3)c3nc(C)c(Cc4ccc(Cl)cc4F)n3n2)n[nH]1 [GANDOTINIB, Gandotinib] | promoting differentiation significantly higher than 9cis-RA positive control
8 | O=C1NC(=O)C(c2cnc3ccccn23)=C1c1cn2c3c(cc(F)cc13)CN(C(=O)N1CCCCC1)CC2 [LY-2090314] | promoting differentiation significantly higher than 9cis-RA positive control
9 | CCCc1nc(C(F)(F)F)ccc1/C=C/C(=O)N[C@H](C)c1cc(F)c(NS(C)(=O)=O)c(F)c1 [PAC-14028] | promoting differentiation significantly higher than 9cis-RA positive control
10 | CNC(=O)c1cc(Oc2ccc(NC(=O)Nc3cc(C(C)(C)C)nn3-c3ccc4ncccc4c3)c(F)c2)ccn1 [REBASTINIB] | promoting differentiation significantly higher than 9cis-RA positive control
11 | Cc1cncc(CN2CCC(=C3c4ccc(Cl)cc4CCc4cccnc43)CC2)c1 [Rupatadine] | promoting differentiation significantly higher than 9cis-RA positive control
12 | O=C(O)Cn1c2c(c3cc(F)ccc31)CN(C(=O)c1cccc3ccccc13)CC2 [SETIPIPRANT] | promoting differentiation significantly higher than 9cis-RA positive control
13 | C[C@]12CCC(=O)C[C@@H]1CC[C@@H]1[C@@H]2CC[C@]2(C)[C@@H](O)CC[C@@H]12 [STANOLONE] | promoting differentiation significantly higher than 9cis-RA positive control
14 | CN(C(=O)c1ccc(F)cc1C(F)(F)F)C1CCN(c2nnc(-c3ccnn3C)c3ccccc23)CC1 [Taladegib] | promoting differentiation significantly higher than 9cis-RA positive control

What follows are compounds tested on murine cortical neurons (14 DIV) (assay: NMDA-mediated neuroprotective assay (CCK8 viability)). Settings: 1 μM, 3 h pre-treatment, NMDA 8 μM 24 h, p<0.05.
Type: cell-based, mouse
Description: To assess neuroprotective activity of 160 selected non-toxic compounds on primary murine cortical neurons, obtained as described in the previous paragraph, ([…]), cultures were pre-treated with 1 μM compounds for either 3 or 24 hours, followed by 24 hours chronic stimulation with NMDA (8 μM) to induce neuronal damage. Each test plate included: a negative control (untreated), vehicle-treated control (0.02% vol/vol DMSO), a positive neurotoxic control—staurosporine 0.1 μM, a stressor—NMDA 8 μM, a positive neuroprotective control—NAC 300 μM, and a combination of stressor +neuroprotective molecule (NMDA+NAC). Cell viability was measured with Cell Counting Kit-8 assay compared to NMDA-treated control.
The potential neuroprotective activity of 160 selected non-toxic compounds was evaluated on murine cortical neurons (14 DIV) with either 3 h (FIG. 13) or 24 h compounds pre-treatment (FIG. 14). In assay with 3 h pre-treatment, 17 compounds were identified as potential NMDA-neuroprotective hits (marked with black asterisk in FIG. 13, stat. significant at p<0.05, Kruskal-Wallis test with post-hoc two-stage linear step-up procedure of Benjamini, Krieger and Yekutieli multiple comparison correction).

Row | Compound | neuroprotection of viability/metabolic activity against NMDA
15 | C[C@H](Nc1ncnc2[nH]cnc12)c1cc2ccc(F)cc2nc1-c1ccccn1 [AMG-319] | hit compounds
16 | CC(=O)Nc1cccc2c1c(Sc1ccc(Cl)cc1)c(C)n2CC(=O)O [AZD1981] | hit compounds

Each compound was assayed on mouse cortical neurons (assay: Morphological integrity evaluation, NMDA 8 μM (MAP2 neurite length and branching)). Settings: 3 h pre-treatment, NMDA 8 μM 24 h; Z>0.5 criteria.
Type: cell-based
Description: Apart of viability/metabolic readout in NMDA-mediated neurotoxicity assay, a neuronal structural integrity was evaluated by MAP2 staining. Mouse cortical neurons (14 DIV) cultured in MW96 plates were fixed with 4% paraformaldehyde (PFA). Fixed cells were incubated with blocking solution (PBS 1×, donkey serum 5%, Triton 0.1%) for 1-hour, primary antibody (rabbit α-MAP2, 1:250, Millipore) was applied in the same solution overnight at +4° C. […] Nuclei were stained with 4′-6-diamidino-2-phenylindole (DAPI, Roche). Microscopy was performed using ArrayScan™XTI (ThermoFisher) imaging platform. 15 images per well were acquired and analyzed by CellProfiler. Total neurite length and the total number of non-trunk branches were analyzed. Total neurite length and the total number of branching were evaluated from 15 images/well, each compound or control was tested in triplicates. The total neurite length and total number of branches were converted to a standardized Z-score using formula: Xij=((Xij−μ)/σ), where xij is the raw measurement of the compound located in well (i, j), and μ and σ are, respectively, the mean and the standard deviation of all measurements of the plate.^31
The morphological integrity of mouse cortical neurons upon chronic 24 h NMDA (8 μM) exposure with compounds pre-treatment (3 h) in preventive regimen was evaluated. Control (basal), DMSO, N-acetylcysteine (NAC) served as positive controls, while staurosporine and NMDA were negative controls.

Row | Compound | preservation of neurite length and network integrity (branching)
17 | CC[C@H](NC(=O)c1cc(-c2ccccc2)nc2ccccc12)c1ccccc1 [AZD-7624] | preserved both neurite length and the network integrity (branching)
18 | CNC(=O)c1ccc(-c2cnc3ncc(Cc4ccc5ncccc5c4)n3n2)cc1F [Capmatinib] | preserved both neurite length and the network integrity (branching)
19 | Cc1cc(F)c(C(=O)Nc2cccc(-c3nncn3C(C)C)n2)cc1-n1cnc(C2CC2)c1 [GS-4997] | preserved both neurite length and the network integrity (branching)
20 | CN=C(NS(=O)(=O)c1ccc(Cl)cc1)N1C[C@H](c2ccccc2)C(c2ccc(Cl)cc2)=N1 [Ibipinabant] | preserved both neurite length and the network integrity (branching)
21 | CC(=O)N(C)c1cccc(-c2ccnc3c(C(=O)c4cccs4)cnn23)c1 [Indiplon] | preserved both neurite length and the network integrity (branching)
22 | N[C@@H](Cc1ccccc1)C(=O)O [L-Phenylalanine] | preserved both neurite length and the network integrity (branching)
23 | O=C(O)[C@H](CC(=O)N1C[C@H]2CCCC[C@H]2C1)Cc1ccccc1 [Mitiglinide] | preserved both neurite length and the network integrity (branching)
24 | COc1ccsc1CNCC[C@@]1(c2ccccn2)CCOC2(CCCC2)C1 [Oliceridine] | preserved both neurite length and the network integrity (branching)
25 | CNC(=O)c1ccc2cc([C@@]3(O)CCn4cncc43)ccc2c1 [Orteronel] | preserved both neurite length and the network integrity (branching)
26 | CN1Cc2cc(Cl)ccc2-n2c(nnc2[C@H]2CC[C@H](Oc3ccccn3)CC2)C1 [RG7314] | preserved both neurite length and the network integrity (branching)
27 | O=C(O)CCn1c2c(c3ccccc31)C[C@H](NS(=O)(=O)c1ccc(F)cc1)CC2 [Ramatroban] | preserved both neurite length and the network integrity (branching)
28 | CC[C@H](CO)Nc1nc(NCc2ccccc2)c2ncn(C(C)C)c2n1 [Seliciclib] | preserved both neurite length and the network integrity (branching)
29 | O=c1sn(-c2cccc3ccccc23)c(=O)n1Cc1ccccc1 [Tideglusib] | preserved both neurite length and the network integrity (branching)
30 | NC(=O)c1ccc(N(C(N)=O)c2c(F)cccc2F)nc1-c1ccc(F)cc1F [VX-702] | preserved both neurite length and the network integrity (branching)
31 | C[C@@H]1COC(Nc2ccc3ncnc(Nc4ccc(OCc5nccs5)c(Cl)c4)c3c2)=N1 [Varlitinib] | preserved both neurite length and the network integrity (branching)
32 | CC(C)(C)S(=O)(=O)N[C@H]1CC[C@H](C(=O)Nc2ccc(C(F)(F)F)cn2)CC1 [Velneperit] | preserved both neurite length and the network integrity (branching)
